Assay results taken from the Kinase Knowledgebase extract (Sharma et al. 2016).
Converted amounts (≈) assume the structure as drawn.

How the values were obtained:
EGFR (human) [1] = molecular target: EGFR (human) (UniProt P00533); conditions: sw 620
EGFR (human) [2] = molecular target: EGFR (human) (UniProt P00533); conditions: sk-br-3
EGFR (human) [3] = molecular target: EGFR (human) (UniProt P00533); conditions: mda-mb-435
EGFR (human) [4] = molecular target: EGFR (human) (UniProt P00533); conditions: 3t3
EGFR = EGFR (UniProt P00533); conditions: for inhibition: concentration not given here
Chain of EGFR (P00533 whole entry, looked up): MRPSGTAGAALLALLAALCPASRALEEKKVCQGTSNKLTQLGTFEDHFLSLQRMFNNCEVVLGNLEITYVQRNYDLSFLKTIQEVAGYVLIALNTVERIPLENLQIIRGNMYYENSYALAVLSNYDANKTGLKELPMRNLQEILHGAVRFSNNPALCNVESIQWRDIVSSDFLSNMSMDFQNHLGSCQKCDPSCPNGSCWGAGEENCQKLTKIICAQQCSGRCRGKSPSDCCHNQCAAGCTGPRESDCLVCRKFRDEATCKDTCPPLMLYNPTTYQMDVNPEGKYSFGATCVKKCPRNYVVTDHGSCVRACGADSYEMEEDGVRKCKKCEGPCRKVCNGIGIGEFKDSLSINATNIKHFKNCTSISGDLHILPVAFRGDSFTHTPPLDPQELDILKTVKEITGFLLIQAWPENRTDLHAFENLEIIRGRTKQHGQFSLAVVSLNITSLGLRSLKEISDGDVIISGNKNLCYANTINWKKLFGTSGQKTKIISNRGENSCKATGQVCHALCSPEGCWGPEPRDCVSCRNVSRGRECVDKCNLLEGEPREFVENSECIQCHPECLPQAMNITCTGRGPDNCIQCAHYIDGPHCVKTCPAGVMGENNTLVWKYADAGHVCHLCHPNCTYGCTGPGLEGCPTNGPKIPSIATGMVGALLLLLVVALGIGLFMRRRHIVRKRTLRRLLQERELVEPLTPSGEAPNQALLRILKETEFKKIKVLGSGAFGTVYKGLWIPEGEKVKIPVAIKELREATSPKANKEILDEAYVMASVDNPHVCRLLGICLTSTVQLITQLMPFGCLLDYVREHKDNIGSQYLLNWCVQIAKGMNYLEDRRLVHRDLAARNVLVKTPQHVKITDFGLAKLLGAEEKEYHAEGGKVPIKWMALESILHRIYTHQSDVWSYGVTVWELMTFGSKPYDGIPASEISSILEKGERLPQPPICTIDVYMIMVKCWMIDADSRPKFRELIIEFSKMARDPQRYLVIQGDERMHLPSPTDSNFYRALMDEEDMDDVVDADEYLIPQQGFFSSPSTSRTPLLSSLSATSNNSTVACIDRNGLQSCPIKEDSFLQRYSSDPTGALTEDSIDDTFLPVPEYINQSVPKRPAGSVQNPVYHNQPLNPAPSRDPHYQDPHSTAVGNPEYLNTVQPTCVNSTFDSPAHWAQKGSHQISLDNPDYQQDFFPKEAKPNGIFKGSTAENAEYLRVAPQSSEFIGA

EGFR (human) [5] = molecular target: EGFR (human) (UniProt P00533); conditions: a2780
EGFR (human) [6] = molecular target: EGFR (human) (UniProt P00533); conditions: ddp
EGFR (human) [7] = molecular target: EGFR (human) (UniProt P00533); conditions: a431

Chain of EGFR (human) (P00533 whole entry, looked up): as above

| IC50 (EGFR (human) [1]) | IC50 (EGFR (human) [2]) | IC50 (EGFR (human) [3]) | IC50 (EGFR (human) [4]) | Compound | inhibition (EGFR) | IC50 (EGFR (human) [7]) | other results |
| --- | --- | --- | --- | --- | --- | --- | --- |
| < 0.0005 µg/mL | > 0.294 µg/mL | 0.352 µg/mL (≈ 0.943 µM) | 0.525 µg/mL (≈ 1.41 µM) | CCOc1cc2ncc(C#N)c(Nc3ccc4c(c3)CCC4)c2cc1OCC | – | – | – |
| – | – | – | – | CCOc1cc2ncc(C#N)c(Nc3ccc4c(c3)NCC4)c2cc1OCC | 6% | – | IC50 (EGFR): > 10000 nM |
| 0.411 µg/mL (≈ 1.05 µM) | 0.281 µg/mL (≈ 0.718 µM) | 0.235 µg/mL (≈ 0.6 µM) | 0.853 µg/mL (≈ 2.18 µM) | CCOc1cc2ncc(C#N)c(Nc3ccc4c(c3)OCCO4)c2cc1OCC | – | – | – |
| – | – | – | – | Cn1ccnc1Sc1ccc(Nc2c(C#N)cnc3ccc(/C=C/C(N)=O)cc23)cc1Cl | – | – | IC50 (EGFR): 10 nM |
| – | – | – | – | COc1cc2ncc(C#N)c(Nc3ccc(O)c4ncccc34)c2cc1OC | 0% | – | – |
| – | – | – | – | COc1cc2ncc(C#N)c(Nc3ccc4[nH]ncc4c3)c2cc1OC | 0% | – | – |
| – | – | – | – | COc1cc2ncc(C#N)c(Nc3cccc4ncccc34)c2cc1OC | 0% | – | – |
| 0.146 µg/mL (≈ 0.346 µM) | 0.336 µg/mL (≈ 0.797 µM) | 0.0033 µg/mL (≈ 0.00783 µM) | 0.392 µg/mL (≈ 0.93 µM) | CCOc1cc2ncc(C#N)c(Nc3ccc4c(c3)S(=O)(=O)C=C4)c2cc1OCC | – | – | – |
| – | – | – | – | COc1cc2ncc(C#N)c(Nc3ccc4[nH]c(=O)sc4c3)c2cc1OC | 0% | – | – |
| 4.31 µg/mL (≈ 12 µM) | 2.09 µg/mL (≈ 5.83 µM) | 2.63 µg/mL (≈ 7.31 µM) | 3.22 µg/mL (≈ 8.96 µM) | CCOc1cc2c(Nc3ccc4cn[nH]c4c3)c(C#N)cnc2cc1OC | – | – | – |
| 2.92 µg/mL (≈ 6.98 µM) | > 5 µg/mL | > 5 µg/mL | > 5 µg/mL | CCOc1cc2ncc(C#N)c(Nc3ccc4[nH]c(=O)oc(=O)c4c3)c2cc1OCC | – | > 5 µg/mL | – |
| > 5 µg/mL | > 5 µg/mL | > 5 µg/mL | > 5 µg/mL | CCOc1cc2ncc(C#N)c(Nc3ccc4c(=O)[nH][nH]c(=O)c4c3)c2cc1OCC | – | > 5 µg/mL | – |
| – | – | – | – | COc1cc2c(Nc3ccc4cn[nH]c4c3)c(C#N)cnc2cc1OCCN(C)C | 0% | – | – |
| – | – | – | – | COc1cc2ncc(C#N)c(Nc3cccc4cnccc34)c2cc1OC | 0% | – | – |
| > 5 µg/mL | > 5 µg/mL | 2.04 µg/mL (≈ 4.72 µM) | > 5 µg/mL | COCCOc1cc2ncc(C#N)c(Nc3ccc4cn[nH]c4c3)c2cc1OCCOC | – | – | – |
| – | – | – | – | COc1cc2ncc(C#N)c(Nc3ccc4[nH]ccc4c3)c2cc1OC | – | – | IC50 (EGFR): 1.5 to 4 nM |
| – | 0.0281 µg/mL (≈ 0.0725 µM) | 0.028 µg/mL (≈ 0.0723 µM) | 0.0923 µg/mL (≈ 0.238 µM) | CCOc1cc2ncc(C#N)c(Nc3ccc4c(c3)CCC4=O)c2cc1OCC | – | 0.0244 µg/mL (≈ 0.063 µM) | – |
| 0.325 µg/mL (≈ 0.782 µM) | 0.429 µg/mL (≈ 1.03 µM) | – | – | CCOc1cc2ncc(C#N)c(Nc3ccc4c(C)cc(=O)oc4c3)c2cc1OCC | – | 0.369 µg/mL (≈ 0.888 µM) | IC50 (EGFR (human) [5]): 0.27 µg/mL (≈ 0.65 µM); IC50 (EGFR (human) [6]): 0.249 µg/mL (≈ 0.599 µM) |

| Compound | IC50 (EGFR (human) [1]) | IC50 (EGFR (human) [2]) | IC50 (EGFR (human) [3]) | IC50 (EGFR (human) [4]) | inhibition (EGFR) | IC50 (EGFR (human) [7]) | other results |
| --- | --- | --- | --- | --- | --- | --- | --- |
| CCOc1cc2ncc(C#N)c(Nc3ccc4cc[nH]c4c3)c2cc1OCC | 0.286 to 0.326 µg/mL (≈ 0.768 to 0.875 µM) | 0.0374 to 0.18 µg/mL (≈ 0.1 to 0.483 µM) | 0.073 to 0.365 µg/mL (≈ 0.196 to 0.98 µM) | – | – | 0.123 to 0.216 µg/mL (≈ 0.33 to 0.58 µM) | IC50 (EGFR (human) [5]): 0.231 µg/mL (≈ 0.62 µM); IC50 (EGFR (human) [6]): 0.313 µg/mL (≈ 0.84 µM) |
| CCOc1cc2ncc(C#N)c(Nc3ccc4c[nH]nc4c3)c2cc1OC | 0.0212 µg/mL (≈ 0.059 µM) | 0.022 µg/mL (≈ 0.0612 µM) | 0.0359 µg/mL (≈ 0.0999 µM) | – | – | – | – |
| CCOc1cc2ncc(C#N)c(Nc3ccc4cn[nH]c4c3)c2cc1OCC | 0.033 µg/mL (≈ 0.0884 µM) | 0.016 µg/mL (≈ 0.0428 µM) | 0.02 µg/mL (≈ 0.0536 µM) | – | – | 0.025 µg/mL (≈ 0.0669 µM) | IC50 (EGFR (human) [5]): 0.032 µg/mL (≈ 0.0857 µM); IC50 (EGFR (human) [6]): 0.036 µg/mL (≈ 0.0964 µM) |
| CCOc1cc2ncc(C#N)c(Nc3ccc4c(c3)C(=O)NCC(=O)N4C)c2cc1OCC | > 5 µg/mL | > 5 µg/mL | > 5 µg/mL | – | – | > 5 µg/mL | – |
| CCOc1cc2ncc(C#N)c(Nc3ccc4c(c3)C(=O)OC4)c2cc1OCC | 1.56 µg/mL (≈ 4.02 µM) | > 5 µg/mL | 3.4 µg/mL (≈ 8.74 µM) | – | – | > 5 µg/mL | – |
